Legend:
Type in all cases: cell-based, human
[1] = system: β-catenin and SetD1A binding to the TERT promoter in Huh7 cells; experiment: Chromatin immunoprecipitation (ChIP) at the TERT promoter; settings: HCC (Huh7) cells, with or without 300 μmol/L H2O2
Experimental: As it has been described before (Lim S O, et al. Gastroenterology. 2008; 135: 2128-40, 40 el-8.; Hoffmeyer K, et al. Science. 2012; 336: 1549-54.), several modified ChIP (chromatin immunoprecipitation) tests were carried out. In the presence or absence of a PI3K inhibitor, an AKT inhibitor, or a GSK3β inhibitor, Huh7 cells were cultured for 4 days with or without a treatment of 300 μmol/L H2O2. Under mild shaking for 20 minutes at room temperature, the cells were fixed by using 1% paraformaldehyde. After that, the cells were rinsed twice with ice-cold PBS; resuspended with 400 μL of micrococcal nuclease buffer (50 mmol/L TrisHCl [pH 8.0], 5 mmol/L CaC12, 100 μg/mL BSA, 10 mmol/L KCl, and protease inhibitor cocktail [Roche, Basel, Switzerland; 4693159001]); and disrupted with 2 mm-diameter zirconium beads (Watson); to have micrococcal nuclease digestion (New England Biolabs, Beverly, Mass., USA; M0247S). Chromatin (150 μg) was collected and diluted in a dilution buffer (0.1% NP-40, 2 mmol/L EDTA, 150 mmol/L NaCl, 20 mmol/L TrisHCl [pH 8.0], protease inhibitor cocktail [Roche]), and a phosphatase inhibitor cocktail [Calbiochem]), and then subjected to pre-clearing with 2 μg digested salmon sperm DNA, 10 μL preimmune serum (Santa Cruz Biotechnology; sc-2027), and Dynabeads Protein G (Life Technologies; 1004D) for 2 hours at 4° C. After the immunoprecipitation, 20 μL of Dynabeads Protein G were added thereto and the culture was continued for 2 hours. The Dynabeads were washed continuously for 10 minutes with TSE 1 (0.1% SDS, 1% Triton X-100, 2 mmol/L EDTA, 20 mmol/L TrisHCl, and 150 mmol/L NaCl), TSE II (0.1% SDS, 1% Triton X-100, 2 mmol/L EDTA, 20 mmol/L TrisHCl, and 500 mmol/L NaCl), and buffer III (0.25 mol/L LiCl, 1% NP-40, 1% deoxycholate, 1 mmol/L EDTA, and 10 mmol/L TrisHCl). After that, the beads were washed 3 times with TE buffer, and extraction was made by using 1% SDS and 0.1 mol/L NaHCO3. To have reverse formaldehyde cross-linking, the elution solution was heated overnight at 65° C. By using NucleoSpin DNA clean-up kit, DNA debris were purified. By using primers specific to the TERT promoter region, the PCR amplified product was quantified by qPCR (ABI 7300; Applied Biosystems, Foster City, Calif., USA). The PCR amplification was normalized against the TERT intron. The primer sequences are as follows: β-catenin interaction site for ChIP (forward primer: TCCCGGGTCCCCGGCCCA (SEQ ID NO:8); reverse primer: […] (SEQ ID NO:9)) and TERT intron for ChIP (forward primer: […] (SEQ ID NO:10); reverse primer: […] (SEQ ID NO:11)). For each of the β-catenin interaction site which has been recorded before, 20-22 bp were added. The antibodies that are used are as follows: rabbit polyclonal anti-β-catenin (1:200, Abcam, Cambridge, Mass., USA; ab6302), mouse monoclonal anti-RNA polymerase II (1:50, Covance, Princeton, N.J., USA; MMS-126R), and rabbit polyclonal anti-SETD1A (1:100, Novus Biologicals, Littleton, Colo., USA; NBP1-81513).
Inventors of the present invention made an investigation to see whether or not the increased chromatin accessibility in TERT promoter during TERT transcription is related with β-catenin. To do so, by using intrinsic β-catenin and an antibody against histone methyl transferase SetD1A which has been reported to promote the TERT transcription based on chromatin remodeling, chromatin immunoprecipitation was carried out. When a PI3K or AKT inhibitor is treated together for chromatin immunoprecipitation, β-catenin and SetD1A, which bind to the TERT promoter in HCC cells, were reduced even in the presence of H2O2 (FIGS. 3A and 3B). However, when the treatment is carried out also with a GSK3p inhibitor, increased binding of β-catenin and SetD1A was shown regardless of a treatment with H2O2 (FIG. 3C).

[2] = system: TERT expression in HCC cell lines (Huh7 and Hep3B); experiment: TERT expression, quantitative real time-PCR and immunoblot; settings: HCC cells treated simultaneously with NAC and H2O2
Experimental: Medium was exchanged every day, and the aforementioned cells were cultured for 4 days in 300 μmol/L hydrogen peroxide (H2O2) (Sigma Aldrich; H1009). In several experiments, the cells were treated for 1 hour with 5 mmol/L N-acetylcysteine (NAC) (Sigma Aldrich; A7250), 25 μmol/L idelalisib (LC Laboratoties, Woburn, Mass., USA; I-7447), 25 μmol/L perifosine (LC Laboratoties, Woburn, Mass., USA; P-6522), or 30 μmol/L GSK3β inhibitor (GSK3β inhibitor XI) (Santa Cruz; sc-204770) (31) before adding H2O2. Furthermore, sterilized distilled water (pH 7.0) was used as a negative control (i.e., mock treatment).
PCR was carried out by using TOPrealm qPCR 2×PreMIX (SYBR Green with high ROX) (Enzynomics, Daejeon, Korea; RT501M) and ABI Prism 7300 thermal cycler (Applied Biosystems, Foster City, Calif., USA). […] To examine the primer specificity, a dissociation step was additionally included.
Total 2×10^5 cells were boiled for 5 minutes in 2×SDS sample buffer (100 mmol/L TrisHCl [pH 6.8], 4% SDS, 0.2% bromophenol blue, 20% glycerol, and 200 mmol/L β-mercaptoethanol), and then subjected to SDS-PAGE and Western blotting. To detect the TERT, the cells were cultured in 2×SDS sample buffer for 15 minutes at 55° C. TERT-specific (1:300, Rockland Immunochemicals, Gilbertsville, Pa., USA; 600-401-252), AKT-specific (1:1000, Cell Signaling Technology; #9272), phospho-AKT-specific (1:2000, Cell Signaling Technology; #4060), GAPDH-specific (1:2000, Santa Cruz Biotechnology; sc-47724), or β-actin-specific (1:2000, Sigma-Aldrich, St. Louis, Mo., USA; A5441) antibody was diluted in 5% skim milk or bovine serum albumin with TBS-Tween 20, cultured overnight at 4° C., washed, and cultured with HRP-conjugated secondary antibody (1:1000, Abcam; ab131368, or ab131366). By using FUSION-SOLO imager (Vilber Lourmat, Marne La Vallee, France), a chemical fluorescence image was obtained.

[3] = system: telomere length in HCC cell lines (Huh7 and Hep3B); experiment: Telomere length (Southern blot, immunoFISH, Flow FISH, quantitative PCR); settings: HCC cells treated simultaneously with NAC and H2O2
Experimental: Volume of the hybridization buffer was adjusted to 100 μl per 10^5 cells. Next, each sample was cultured for 10 minutes in a water bath at 85° C. […] Total 15,000 to 20,000 nuclei were analyzed for the each separate culture. Telomere fluorescence intensity of the all nuclei at […] phase of the cell cycle was measured by using BD FACS Calibur flow cytometer (Becton Dickinson, Franklin Lakes, N.J., USA) in which CELLQUEST software is used. The established ImmunoFISH protocol (Plentz R R, et al., Hepatology. 2007; 45: 968-76) was used with slight modifications. The paraffin-embedded section was subjected to de-paraffinization using xylene, and then rehydrated using ethanol gradient. Antigen retrieval was carried out by boiling in 100 mmol/L sodium citrate (pH 6.0) for 10 minutes in a microwave. After permeation of proteinase K (15 μg/mL in PBS [pH 7.4]) for 20 minutes at 37° C., 8-oxo-dG-specific antibody (1:100, Abcam, Cambridge, Mass., USA; ab62623) was subjected to 1% BSA dilution in PBS 0.1% Triton X-100 and cultured overnight at room temperature. After washing, the slide was treated with Alexa 647 secondary antibody for 1 hour. […] After denaturation for 6 minutes at 90° C., the sample was hybridized for 2 hours at dark place. […] After washing, the slide was rinsed with PBS containing DAPI, and then sealed with a DAPI sealing agent (mounting medium) (Vector Laboratories, Burlingame, Calif., USA). Simultaneously, the inventors of the present invention carried out centromere staining as an internal control for telomere staining and 8-oxo-dG staining. […] For quantification of the telomere fluorescence intensity, centromere fluorescence intensity, and 8-oxo-dG fluorescence intensity, the same exposure time was employed. The telomere fluorescence level and 8-oxo-dG fluorescence level of tumor tissues were calculated by division of the fluorescence level in non-tumor tissues corresponding to 5 random fields. The image analysis was carried out by using Image-Pro plus 6.0 software (Media Cybernetics, Inc., Rockville, Md., USA). Telomere length was determined by using the non-radioactive chemical fluorescence TeloTAGGG telomere length assay (Roche; Cat. No. 12 209 136 001) according to the manual. Genomic DNA was separated from HCC cells using GeneJET Genomic DNA Purification Kit (Thermo Scientific; #K0721), and then 4 μg of the genomic DNA was digested for 16 hours at 37° C. with 20 units of […] digested DNA was subjected to 0.8% agarose gel electrophoresis, and then transferred to a positively charged nylon membrane using capillary transfer. The blotted DNA was hybridized for 16 hours at 42° C. with a digoxigenin (DIG)-labeled probe that is specific to the telomere repeat. After that, it was cultured for 30 minutes at room temperature with DIG-specific antibody conjugated to an alkaline phosphatase Based on quantitative PCR analysis using the genomic DNA extracted from cells, relative telomere repeat copy number (T) and single copy number (S) were determined, and the calculation was made like previous method in which T/S ratio is continuously modified (Cawthon R M. Telomere length measurement by a novel monochrome multiplex quantitative PCR method. Nucleic Acids Res. 2009; 37: e21).

| SMILES | SetD1A binding to the TERT promoter [1] | β-catenin binding to the TERT promoter [1] | H2O2-induced increased TERT expression [2] | H2O2-induced increased telomere length [3] |
| --- | --- | --- | --- | --- |
| CCCCCCCCCCCCCCCCCCOP(=O)([O-])OC1CC[N+](C)(C)CC1 [perifosine] | reduced | reduced |  |  |
| CC(=O)N[C@@H](CS)C(=O)O [NAC, N-acetylcysteine] |  |  | disappeared | disappeared |
| O=C1NC(=O)C(c2cn(CCCO)c3ncccc23)=C1c1cnccn1 [GSK3β inhibitor XI] | increased | increased |  |  |

Reference: patent US10463669B2, “Composition for treating or preventing liver cancer” (Seoul National University R&DB Foundation, priority 2016, dated 2019)
